In patent US7785388B2, “Method for producing stabilized nitrogen compositions” (priority 1999, dated 2010):
Where two headings read alike, the source gives them in different places.

Experiments:
[1] = Aerobic dissolution activity, visual observation in open glasses of water; assay type: physicochemical; design: White grainy deposit / White rhombic froth / Reactivity/floating / Calcium settlements / Meniscus (white): scale not given here; conditions: for Calcium settlements / Evaporation / Meniscus (white) / Particles dissolved / Reactivity/floating / White grainy deposit / White rhombic froth: open air; for pH: open air water solutions
Description: Calcium cyanamide fines, homogeneous calcium cyanamide granules, heterogeneous calcium cyanamide/urea granules, calcium cyanamide granules, and urea were added to equal amounts of water in separate glasses and observed over time. Table 12 is a summary of those visual observations and highlights the vast differences between the aerobic dissolution properties and the chemical reactions over time of open air water solutions of CaNCN granules (1), CaNCN fines (2), homogeneous CaNCN/urea granules formed by melting together CaNCN fines and urea (3), heterogeneous CaNCN/urea granules with a calcium cyanamide core and a urea shell (4), and urea (5).

corn = test: Crop yield after cornfield application; assay type: in vivo; conditions: nitrogen 160 lbs/acre for ammonia
Description: Nitrate leaching after cornfield applications of 0.5% and 1% heterogeneous calcium cyanamide core/urea shell granules was also followed.

Coliform = Coliform numbers in parlor wash manure with 0.2% CaNCN; assay type: cell-based; conditions: below about 0.2% by weight in manure, within 24-120 hrs
[2] = tested on: microscopic eelworms (nematodes); test: Inventor Study, WSU: nematode reduction in vitro
Description: For comparison, results of some prior art studies using dry CaNCN application, liquid molecular cyanamide applications, and the results of an experiment using dicyandiamide are also included in Table 10.

lettuce seed = test: Seed emergence in band drenched lettuce and broccoli plots; assay type: in vivo; conditions: aqueous composition of calcium cyanamide alone as a drench
Description: Yet another test was conducted on lettuce and broccoli plots. […] The rates expressed relevant to strawberry bands were 8 lbs and 16 lbs of nitrogen per acre. […] However, where the drench was allowed to dry for several days before sprinkling, the lettuce seed emergence was reduced 100%. […]

[3] = tested on: microscopic eelworms (nematodes); conditions: not hydrolyzed, cited from earlier work
[4] = tested on: microscopic eelworms (nematodes); conditions: 600-1200 lbs/acre, not hydrolyzed, Field Soil, dry; cited from earlier work
arginine production = conditions: cited from earlier work; for % Relative Arginine Increase: published data, CaNO3 as baseline
Phytophthora = conditions: cited from earlier work
Verticillium = conditions: cited from earlier work
weeds = conditions: cited from earlier work
[5] = about 25° C.; cited from earlier work
[6] = tested on: Meloidogyne chitwoodi J2 larvae; test: Meloidogyne chitwoodi J2 larvae killed after application in irrigation water; assay type: in vivo
Description: This example was done under consultation with Washington State University. Agricultural plots were identified in Washington State.

[7] = tested on: microscopic eelworms (nematodes); conditions: 100 lbs/acre, hydrolyzed + urease, In vitro; cited from earlier work
[8] = tested on: microscopic soil eelworms (nematodes); test: Strawberry bed drip irrigation test against methyl bromide, soil eelworms at 12 inch depth; assay type: in vivo; conditions: methyl bromide in pre-wetted beds
Description: As a result of the before mentioned strawberry bed weed responses, the 70/30 composition was compared directly with methyl bromide (MB) during the California Strawberry Commission's annual testing for alternatives to the ozone negative pesticide, which is scheduled to be 70% banned by 2003. Our chosen objective was to replace pre-banded “slow release” nitrogen with stabilized urea/calcium cyanamide compositions at a similar cost per acre and see if we could attain reduction of weeds and diseases similar to methyl bromide.
The urea/calcium cyanamide composition was applied to pre-wetted and preformed beds through drip irrigation tubes, typically 2 of which are laid inside of where two rows of berry plants will be planted on the outside bed edges. Applications of 100 lbs/acre were compared where the calcium cyanamide composition was applied over 1 hour and 2 hour periods to vary the depth and width of its distribution.
Soil samples, taken at a depth of 12″ in bed centers, were sent for analysis by the Commission. […] It is assumed that the pre-wetting of soil required for bed shaping, caused restricted movement of the methyl bromide gas through the soil.

[9] = dry incorporated, 1,000 lbs./acre
[10] = shank injected and tarped, 350 lbs/acre

SMILES	Calcium settlements ([1]; 1 hour)	Evaporation ([1]; 1 hour)	Meniscus (white) ([1]; 1 hour)	Particles dissolved ([1]; 1 hour)	Reactivity/floating ([1]; 1 hour)	White grainy deposit ([1]; 1 hour)	White rhombic froth ([1]; 1 hour)	Calcium settlements ([1]; 24 hours)	Evaporation ([1]; 24 hours)	Meniscus (white) ([1]; 24 hours)	Particles dissolved ([1]; 24 hours)	Reactivity/floating ([1]; 24 hours)	White grainy deposit ([1]; 24 hours)	White rhombic froth ([1]; 24 hours)	Calcium settlements ([1]; 30 days)	Evaporation ([1]; 30 days)	Meniscus (white) ([1]; 30 days)	Particles dissolved ([1]; 30 days)	Reactivity/floating ([1]; 30 days)	White grainy deposit ([1]; 30 days)	other results
[Ca+2].[N-]=C=[N-] [(1)Granules, calcium cyanamide]	0	0	0	0	0	0	0	0	0	0	2	2	0	0	1	5	1	2	4	2	White rhombic froth ([1]; 30 days): 0; pH [1]: (1)Granules(12)
[Ca+2].[N-]=C=[N-] [(2)Fines, calcium cyanamide]	0	0	0	2	1	0	0	10	0	8	7	10	0	0	10	5	9	8	10	6	White rhombic froth ([1]; 30 days): 0; pH [1]: (2)Fines(12)
N [Ammonia]																					Yield (corn; Field 1, 120 lbs/acre for granules): 180 bushel/acre; Yield (corn; Field 2, 120 lbs/acre for granule): 177 bushel/acre
[Ca+2].[N-]=C=[N-] [CaNCN, calcium cyanamide]																					reductions in coliform bacteria (Coliform): 99.999%; Nematode Reduction ([2]; 9 lbs/acre in distilled water, hydrolyzed, pH = 12.6, In vitro): 100%; Nematode Reduction ([2]; 29 lbs/acre in tap water, hydrolyzed, pH = 10, In vitro): 0%; lettuce seed emergence reductions (lettuce seed; 5 lbs CaNCN N/acre): 85%; lettuce seed emergence reductions (lettuce seed; 10 lbs CaNCN N/acre): 100%; Nematode Reduction ([3]; 1200-2400 equiv. lbs/acre, Wet pot soil): 41-66%; Nematode Reduction ([3]; 1200-2400 lbs/acre, Dry): 4-8%; Nematode Reduction ([3]; 1200-2400 lbs/acre, Wet): 42-54%; Nematode Reduction [4]: 0%; % Relative Arginine Increase (arginine production): 639%; reduction of Phytophthora (Phytophthora; [9]): 0%; reduction of Verticillium (Verticillium; [9]): 8%; weeds reduced (weeds; dry surface incorporation of 1000 lbs/acre followed by 0.5 acre inch sprinkler water): 95%
O=[N+]([O-])[O-].O=[N+]([O-])[O-].[Ca+2] [CaNO3-baseline, calcium nitrate]																					% Relative Arginine Increase (arginine production): 0%
N#CN=C(N)N [Dicyan-Diamide, dicyandiamide, reference compound]																					Nematode Reduction ([2]; 102 lbs/acre in distilled water, pH = 8, In vitro): 0%
N#CN [H2NCN liquid, molecular cyanamide]																					Nematode Reduction ([3]; 112 lbs/acre, In vitro): 100%; stimulation of arginine production relative to urea (arginine production; in plants): 20 times; acid dissociation constant [5]: about 5.42×10^−11
[Na+].[OH-] [NaOH, sodium hydroxide]																					Final pH ([6]; 35 lbs/acre at 1/2 inch depth): 10.6; J2 nema - % killed ([6]; 35 lbs/acre at 1/2 inch depth): 98.6%; Final pH ([6]; 70 lbs/acre at 1/2 inch depth): 11.4; J2 nema - % killed ([6]; 70 lbs/acre at 1/2 inch depth): 100%; Final pH ([6]; 105 lbs/acre at 1/2 inch depth): 11.7; J2 nema - % killed ([6]; 105 lbs/acre at 1/2 inch depth): 100%; Nematode Reduction ([2]; 35 lbs/acre in tap water, pH = 10, In vitro): 99%
NC(N)=O [Urea, urea, reference compound]	0	0	0	0	0	0	0	0	0	0	9	0	0	0	0	4	0	10	0	0	White rhombic froth ([1]; 30 days): 0; pH [1]: (5)Urea(8); Nematode Reduction [7]: 100%; % Relative Arginine Increase (arginine production): 69%
CBr [methyl bromide, reference compound]																					reduction of microscopic soil eelworms (nematodes) [8]: completely ineffective; reduction of Phytophthora (Phytophthora; [10]): 100%; reduction of Verticillium (Verticillium; [10]): 73%; weeds reduced (weeds; shank injected followed by tarping, 350 lbs/acre): 85%
